According to the supplement of paper PMC10627819:

Assays:
S. aureus Newman [1] = test: fitness (endpoint OD595 vs no drug) (fraction); higher = more growth; settings: one replicate
Method in brief: (§1)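 Fitness was measured as bacterial growth in 384-well plates inoculated at OD595 0.01 (30 µl, or 55 µl for S. pneumoniae). Media were TSB, LB Lennox or CY, at 37 °C. OD595 was read every 30 min for 14 h and background-subtracted against the first reading. Fitness is OD595 at the transition into stationary phase divided by the robust mean of no-drug control wells, capped at 1.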

S. pneumoniae D39V [2] = test: as above
Method in brief: as §1

B. subtilis 168 = test: Bliss interaction score (quartile over a dose matrix) (fitness difference); higher = more antagonism (negative = synergy)
Method in brief: (§2)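 The Bliss score subtracts expected fitness, the product of the single-drug fitness values, from observed fitness. Fitness is plate-normalised OD595 at entry into stationary phase, relative to the robust no-drug mean and capped at 1, with single-drug fitness inferred from combinations. Summaries are quartiles over technical, biological and donor/recipient replicates.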

S. aureus DSM 20231 = test: as above
Method in brief: as §2

S. aureus Newman [3] = test: as above
Method in brief: as §2

S. pneumoniae D39V [4] = test: as above
Method in brief: as §2
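Wherever Bliss interaction score (quartile over a dose matrix) is given: first quartile when negative (synergy) and third quartile when positive (antagonism).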

C/C(=C\C(=O)OCCCCCCCCC(=O)O)C[C@@H]1OC[C@H](C[C@@H]2O[C@H]2[C@@H](C)[C@H](C)O)[C@@H](O)[C@H]1O [Pseudomonic acid] + CC1=C\[C@@H](O)CC(=O)Cc2nc(co2)C(=O)N2CCC=C2C(=O)O[C@H](C(C)C)[C@H](C)/C=C/C(=O)NC\C=C\1 [Virginiamycin M1]
fitness
Settings	first compound 0.03 µg/mL	first compound 0.0313 µg/mL	first compound 0.06 µg/mL	first compound 0.0625 µg/mL	first compound 0.12 µg/mL	first compound 0.125 µg/mL
S. aureus Newman [1], partner 0.0625 µg/mL	–	0.0328	–	0.0216	–	0.0353
S. aureus Newman [1], partner 0.125 µg/mL	–	0.0308	–	0.0347	–	0.0594
S. aureus Newman [1], partner 0.25 µg/mL	–	0.0405	–	0.0352	–	0.0492
S. pneumoniae D39V [2], partner 0.5 µg/mL	0.924	–	0.856	–	0.629	–
S. pneumoniae D39V [2], partner 1 µg/mL	0.914	–	0.798	–	0.63	–
S. pneumoniae D39V [2], partner 2 µg/mL	0.952	–	0.844	–	0.647	–

fitness, S. pneumoniae D39V [2], one replicate
Settings	first compound 0.03 µg/mL	first compound 0.06 µg/mL	first compound 0.12 µg/mL
partner 0.15 µg/mL	≥ 1	≥ 1	0.866
partner 0.3 µg/mL	≥ 1	≥ 1	0.865

Settings	Bliss interaction score
B. subtilis 168	-0.0497
S. aureus DSM 20231	-0.0077
S. aureus Newman [3]	-0.0218
S. pneumoniae D39V [4]	0.106

C/C(=C\C(=O)OCCCCCCCCC(=O)O)C[C@@H]1OC[C@H](C[C@@H]2O[C@H]2[C@@H](C)[C@H](C)O)[C@@H](O)[C@H]1O [Pseudomonic acid] + CN1C2=CC=CC=C2N=C3C1=CC=CC3=O [Pyocyanin]
Settings	fitness
S. aureus Newman [1], first compound 0.0313 µg/mL, partner 1.25 µg/mL	0.0664
S. aureus Newman [1], first compound 0.0313 µg/mL, partner 2.5 µg/mL	0.0672
S. aureus Newman [1], first compound 0.0313 µg/mL, partner 5 µg/mL	0.0481
S. aureus Newman [1], first compound 0.0625 µg/mL, partner 1.25 µg/mL	0.0399
S. aureus Newman [1], first compound 0.0625 µg/mL, partner 2.5 µg/mL	0.0381
S. aureus Newman [1], first compound 0.0625 µg/mL, partner 5 µg/mL	0.0417
S. aureus Newman [1], first compound 0.125 µg/mL, partner 1.25 µg/mL	0.0453
S. aureus Newman [1], first compound 0.125 µg/mL, partner 2.5 µg/mL	0.0514
S. aureus Newman [1], first compound 0.125 µg/mL, partner 5 µg/mL	0.057
S. pneumoniae D39V [2], first compound 0.03 µg/mL, partner 0.325 µg/mL	0.955
S. pneumoniae D39V [2], first compound 0.03 µg/mL, partner 0.65 µg/mL	0.932
S. pneumoniae D39V [2], first compound 0.06 µg/mL, partner 0.325 µg/mL	0.849
S. pneumoniae D39V [2], first compound 0.06 µg/mL, partner 0.65 µg/mL	0.843
S. pneumoniae D39V [2], first compound 0.06 µg/mL, partner 1.3 µg/mL	0.55
S. pneumoniae D39V [2], first compound 0.12 µg/mL, partner 0.325 µg/mL	0.611
S. pneumoniae D39V [2], first compound 0.12 µg/mL, partner 0.65 µg/mL	0.554
S. pneumoniae D39V [2], first compound 0.12 µg/mL, partner 1.3 µg/mL	0.395

Settings	Bliss interaction score
B. subtilis 168	-0.0558
S. aureus DSM 20231	0.0163
S. aureus Newman [3]	0.0185
S. pneumoniae D39V [4]	-0.0764

C/C(=C\C(=O)OCCCCCCCCC(=O)O)C[C@@H]1OC[C@H](C[C@@H]2O[C@H]2[C@@H](C)[C@H](C)O)[C@@H](O)[C@H]1O [Pseudomonic acid] + CN(C)c1cc(NC(=O)CNC(C)(C)C)c(O)c2c1C[C@H]1C[C@H]3[C@H](N(C)C)C(O)=C(C(N)=O)C(=O)[C@@]3(O)C(O)=C1C2=O [Tigecycline]
fitness
Settings	first compound 0.03 µg/mL	first compound 0.0313 µg/mL	first compound 0.06 µg/mL	first compound 0.0625 µg/mL	first compound 0.12 µg/mL	first compound 0.125 µg/mL
S. aureus Newman [1], partner 0.039 µg/mL	–	0.0303	–	0.0332	–	0.029
S. aureus Newman [1], partner 0.078 µg/mL	–	0.0326	–	0.0257	–	0.0238
S. aureus Newman [1], partner 0.156 µg/mL	–	0.0698	–	0.0522	–	0.0728
S. pneumoniae D39V [2], partner 0.65 µg/mL	0.872	–	0.739	–	0.575	–
S. pneumoniae D39V [2], partner 1.3 µg/mL	0.923	–	0.747	–	0.612	–
S. pneumoniae D39V [2], partner 2.6 µg/mL	0.879	–	0.752	–	0.59	–

Settings	Bliss interaction score
B. subtilis 168	0.07
S. aureus DSM 20231	0.006
S. aureus Newman [3]	-0.0182
S. pneumoniae D39V [4]	-0.124

C/C(=C\C(=O)OCCCCCCCCC(=O)O)C[C@@H]1OC[C@H](C[C@@H]2O[C@H]2[C@@H](C)[C@H](C)O)[C@@H](O)[C@H]1O [Pseudomonic acid] + CN(N=O)C(=O)N[C@@H](C=O)[C@@H](O)[C@H](O)[C@H](O)CO [Streptozotocin]
fitness
Settings	first compound 0.03 µg/mL	first compound 0.0313 µg/mL	first compound 0.06 µg/mL	first compound 0.0625 µg/mL	first compound 0.12 µg/mL	first compound 0.125 µg/mL
S. aureus Newman [1], partner 0.15 µg/mL	–	0.0359	–	0.0417	–	0.0264
S. aureus Newman [1], partner 0.3 µg/mL	–	0.0204	–	0.0023	–	0.0089
S. aureus Newman [1], partner 0.6 µg/mL	–	0.0135	–	0.0039	–	0.0091
S. pneumoniae D39V [2], partner 1.2 µg/mL	0.834	–	0.722	–	0.533	–
S. pneumoniae D39V [2], partner 2.4 µg/mL	0.885	–	0.718	–	0.538	–
S. pneumoniae D39V [2], partner 4.8 µg/mL	0.874	–	0.752	–	0.56	–

Settings	Bliss interaction score
B. subtilis 168	0.105
S. aureus DSM 20231	-0.011
S. aureus Newman [3]	-0.0211
S. pneumoniae D39V [4]	-0.0598

C/C(=C\C(=O)OCCCCCCCCC(=O)O)C[C@@H]1OC[C@H](C[C@@H]2O[C@H]2[C@@H](C)[C@H](C)O)[C@@H](O)[C@H]1O [Pseudomonic acid] + CN[C@@H]1[C@H](O)[C@H](NC)[C@H]2O[C@@]3(O)C(=O)C[C@@H](C)O[C@H]3O[C@@H]2[C@H]1O [Spectinomycin]
fitness
Settings	first compound 0.03 µg/mL	first compound 0.0313 µg/mL	first compound 0.06 µg/mL	first compound 0.0625 µg/mL	first compound 0.12 µg/mL	first compound 0.125 µg/mL
S. aureus Newman [1], partner 4 µg/mL	–	0.0277	–	0.0288	–	0.0466
S. aureus Newman [1], partner 8 µg/mL	–	0.0165	–	0.0234	–	0.0364
S. aureus Newman [1], partner 16 µg/mL	–	0.0048	–	0.0214	–	0.0111
S. pneumoniae D39V [2], partner 4 µg/mL	0.899	–	0.87	–	0.564	–
S. pneumoniae D39V [2], partner 8 µg/mL	0.924	–	0.793	–	0.53	–
S. pneumoniae D39V [2], partner 16 µg/mL	0.756	–	0.716	–	0.443	–

Settings	Bliss interaction score
B. subtilis 168	0.0538
S. aureus DSM 20231	-0.0116
S. aureus Newman [3]	-0.0301
S. pneumoniae D39V [4]	-0.0665
